tested on: not given; assay: not given; conditions: not given

Structure (SMILES)	melting point [°C]
COc1ccc(C2=CCNCC2)c2sc(NC(=O)c3ccc(F)cc3)nc12.Cl	268 to 275
COC(=O)Nc1nc2c(OC)ccc(C3=CCCCC3)c2s1 [Example 22, (7-Cyclohex-1-enyl-4-methoxy-benzothiazol-2-yl)-carbamic acid methyl ester]	164 to 173
COc1ccc(C2CCCCC2)c2sc(NC(=O)c3ccc(F)cc3)nc12 [Example 23, N-(7-Cyclohexyl-4-methoxy-benzothiazol-2-yl)-4-fluoro-benzamide]	192 to 195
COc1ccc(C2CCOCC2)c2sc(NC(=O)c3ccnc(CN4CCCC4)c3)nc12 [Example 43, N-[4-Methoxy-7-(tetrahydro-pyran-4-yl)-benzothiazol-2-yl]-2-pyrrolidin-1-ylmethyl-isonicotinamide]	200 to 202
COc1ccc(C2CCNCC2)c2sc(NC(=O)N3CCOCC3)nc12.Cl	314 to 315
COc1ccc(C2CCOCC2)c2sc(NC(=O)N3CCC(O)CC3)nc12 [Example 45, 4-Hydroxy-piperidine-1-carboxylic acid [4-methoxy-7-(tetrahydro-pyran-4-yl)-benzothiazol-2-yl]-amide]	106 to 109

molecular target: T1, human adenosine A2A receptor (Homo sapiens, UniProt P29274); assay: [3H]-SCH-58261 binding assay, human adenosine A2A receptor expressed in CHO cell membranes (SPA); conditions: [3H]-SCH-58261 1 nM, Ki by Cheng-Prussoff equation
T1 construct: expressed in transfected cells; host or cells: CHO cells, semliki forest virus expression system; membrane preparation
T1 sequence (P29274 whole entry): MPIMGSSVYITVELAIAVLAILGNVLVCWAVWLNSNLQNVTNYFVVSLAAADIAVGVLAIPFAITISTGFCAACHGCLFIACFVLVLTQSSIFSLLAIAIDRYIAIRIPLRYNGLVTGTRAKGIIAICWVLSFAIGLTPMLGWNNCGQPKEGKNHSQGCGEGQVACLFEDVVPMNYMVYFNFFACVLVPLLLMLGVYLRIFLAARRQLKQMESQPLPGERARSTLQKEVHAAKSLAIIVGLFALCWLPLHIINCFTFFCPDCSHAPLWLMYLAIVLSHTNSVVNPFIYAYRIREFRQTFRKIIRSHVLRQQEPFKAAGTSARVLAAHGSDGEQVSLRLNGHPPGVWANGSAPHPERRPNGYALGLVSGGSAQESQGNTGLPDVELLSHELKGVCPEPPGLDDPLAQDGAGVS
Procedure: Human Adenosine A2A Receptor
The human adenosine A2A receptor was recombinantly expressed in chinese hamster ovary (CHO) cells using the semliki forest virus expression system. Cells were harvested, washed twice by centrifugation, homogenised and again washed by centrifugation. The final washed membrane pellet was suspended in a Tris (50 mM) buffer containing 120 mM NaCl, 5 mM KCl, 2 mM CaCl2 and 10 mM MgCl2 (pH 7.4) (buffer A). The [^3H]-SCH-58261 (Dionisotti et al., 1997, Br J Pharmacol 121, 353; 1 nM) binding assay was carried out in 96-well plates in the presence of 2.5 μg of membrane protein, 0.5 mg of Ysi-poly-1-lysine SPA beads and 0.1 U adenosine deaminase in a final volume of 200 μl of buffer A. Non-specific binding was defined using xanthine amine congener (XAC; 2 μM). Compounds were tested at 10 concentrations from 10 μM-0.3 nM. All assays were conducted in duplicate and repeated at least two times. Assay plates were incubated for 1 hour at room temperature before centrifugation and then bound ligand determined using a Packard Topcount scintillation counter. IC50 values were calculated using a non-linear curve fitting program and Ki values calculated using the Cheng-Prussoff equation.

Structure (SMILES)	hA2 (pKi)
COc1ccc(C2CCCCC2)c2sc(NC(=O)c3ccnc(CN4CCCC4)c3)nc12 [Example 25, N-(7-Cyclohexyl-4-methoxy-benzothiazol-2-yl)-2-pyrrolidin-1-yl-methyl-isonicotinamide]	8.80

same assay, conditions: [3H]-SCH-58261 1 nM, Ki by Cheng-Prussoff equation, read-out: hA2 (pKi) (converted)

Structure (SMILES)	Ki [nM]
CCc1cc(C(=O)Nc2nc3c(OC)ccc(C4CCOCC4)c3s2)ccn1 [Example 33, 2-Ethyl-N-[4-methoxy-7-(tetrahydro-pyran-4-yl)-benzothiazol-2-yl]-isonicotinamide]	1.66
COCCN(C)Cc1ccc(C(=O)Nc2nc3c(OC)ccc(C4CCOCC4)c3s2)cc1 [Example 8, 4-{[(2-Methoxy-ethyl)-methyl-amino]-methyl}-N-[4-methoxy-7-(tetrahydro-pyran-4-yl)-benzothiazol-2-yl]-benzamide]	2.4
COCCN(C)Cc1ccc(C(=O)Nc2nc3c(OC)ccc(C4CCN(C(C)=O)CC4)c3s2)cc1 [Example 18, N-[7-(1-Acetyl-piperidin-4-yl)-4-methoxy-benzothiazol-2-yl]-4-{[(2-methoxy-ethyl)-methylamino]-methyl}-benzamide]	7.94
COc1ccc(C2=CCN(C(C)=O)CC2)c2sc(NC(=O)c3ccc(F)cc3)nc12 [Example 11, N-[7-(1-Acetyl-1,2,3,6-tetrahydro-pyridin-4-yl)-4-methoxy-benzothiazol-2-yl]-4-fluoro-benzamide]	5.01
COc1ccc(C2CCCCO2)c2sc(NC(=O)c3ccnc(C)c3)nc12 (stereo not shown) [Example 41, N-[4-Methoxy-7-(tetrahydro-pyran-2-yl)-benzothiazol-2-yl]-2-methyl-isonicotinamide]	3.39
COc1cc(C(=O)Nc2nc3c(OC)ccc(C4CCN(C(C)=O)CC4)c3s2)ccn1 [Example 21, N-[7-(1-Acetyl-piperidin-4-yl)-4-methoxy-benzothiazol-2-yl]-2-methoxy-isonicotinamide]	3.98
COc1ccc(C2CCOCC2)c2sc(NC(=O)c3ccc(C)nc3)nc12 [Example 28, N-[4-Methoxy-7-(tetrahydro-pyran-4-yl)-benzothiazol-2-yl]-6-methyl-nicotinamide]	1.07
COCCN(C)c1cc(C(=O)Nc2nc3c(OC)ccc(C4CCOCC4)c3s2)ccn1 [Example 47, 2-[(2-Methoxy-ethyl)-methyl-amino]-N-[4-methoxy-7-(tetrahydro-pyran-4-yl)-benzothiazol-2-yl]-isonicotinamide]	1.51
COc1ccc(C2CCOCC2)c2sc(NC(=O)c3ccnc(C(C)C)c3)nc12 [Example 36, 2-Isopropyl-N-[4-methoxy-7-(tetrahydro-pyran-4-yl)-benzothiazol-2-yl]-isonicotinamide]	1.17
COc1ccc(C2CCOCC2)c2sc(NC(=O)c3ccc(F)cc3)nc12 [Example 3, 4-Fluoro-N-[4-methoxy-7-(tetrahydro-pyran-4-yl)-benzothiazol-2-yl]-benzamide]	1.41
COC(=O)Nc1nc2c(OC)ccc(C3=CCOCC3)c2s1 [Example 1, [7-(3,6-Dihydro-2H-pyran-4-yl)-4-methoxy-benzothiazol-2-yl]-carbamic acid methyl ester]	4.9
COc1ccc(C2CCOCC2)c2sc(NC(=O)c3ccnc(C)c3)nc12 [Example 5, N-[4-Methoxy-7-(tetrahydro-pyran-4-yl)-benzothiazol-2-yl]-2-methyl-isonicotinamide]	2.82
COc1ccc(C2CCN(C(C)=O)CC2)c2sc(NC(=O)c3ccnc(C)c3)nc12 [Example 17, N-[7-(1-Acetyl-piperidin-4-yl)-4-methoxy-benzothiazol-2-yl]-2-methyl-isonicotinamide]	6.31
COc1ccc(C2CCN(C(C)=O)CC2)c2sc(NC(=O)c3ccc(C)cc3)nc12 [Example 19, N-[7-(1-Acetyl-piperidin-4-yl)-4-methoxy-benzothiazol-2-yl]-4-methyl-benzamide]	3.98
COc1ccc(C2CCOCC2)c2sc(NC(=O)c3ccnc(N4CCOCC4)c3)nc12 [Example 6, N-[4-Methoxy-7-(tetrahydro-pyran-4-yl)-benzothiazol-2-yl]-2-morpholin-4-yl-isonicotinamide]	0.759
COc1ccc(C2CCOCC2)c2sc(NC(=O)N3CCOCC3)nc12 [Example 44, Morpholine-4-carboxylic acid [4-methoxy-7-(tetrahydro-pyran-4-yl)-benzothiazol-2-yl]-amide]	1.51
COc1ccc(C2CCN(C(C)=O)CC2)c2sc(NC(=O)c3ccc(F)cc3)nc12 [Example 12, N-[7-(1-Acetyl-piperidin-4-yl)-4-methoxy-benzothiazol-2-yl]-4-fluoro-benzamide]	3.16

Structure (SMILES)	Ki [nM]
COc1ccc(C2CCCCO2)c2sc(NC(=O)c3ccnc(N4CCOCC4)c3)nc12 (stereo not shown) [Example 42, N-[4-Methoxy-7-(tetrahydro-pyran-2-yl)-benzothiazol-2-yl]-2-morpholin-4-yl-isonicotinamide]	2.04
COc1cc(C(=O)Nc2nc3c(OC)ccc(C4CCOCC4)c3s2)ccn1 [Example 31, 2-Methoxy-N-[4-methoxy-7-(tetrahydro-pyran-4-yl)-benzothiazol-2-yl]-isonicotinamide]	1.45
COCCN(C)Cc1ccc(C(=O)Nc2nc3c(OC)ccc(C4CCCCC4)c3s2)cc1 [Example 24, N-(7-Cyclohexyl-4-methoxy-benzothiazol-2-yl)-4-{[(2-methoxy-ethyl)-methyl-amino]-methyl}-benzamide]	1.58
COCCNc1cc(C(=O)Nc2nc3c(OC)ccc(C4CCOCC4)c3s2)ccn1 [Example 46, 2-(2-Methoxy-ethylamino)-N-[4-methoxy-7-(tetrahydro-pyran-4-yl)-benzothiazol-2-yl]-isonicotinamide]	0.871
COC(=O)Nc1nc2c(OC)ccc(C3=CCCCC3)c2s1 [Example 22, (7-Cyclohex-1-enyl-4-methoxy-benzothiazol-2-yl)-carbamic acid methyl ester]	10
COc1ccc(C2CCCCO2)c2sc(NC(=O)c3ccc(F)cc3)nc12 (stereo not shown) [Example 40, 4-Fluoro-N-[4-methoxy-7-(tetrahydro-pyran-2-yl)-benzothiazol-2-yl]-benzamide]	3.39
CCOc1cc(C(=O)Nc2nc3c(OC)ccc(C4CCOCC4)c3s2)ccn1 [Example 32, 2-Ethoxy-N-[4-methoxy-7-(tetrahydro-pyran-4-yl)-benzothiazol-2-yl]-isonicotinamide]	2.75
COc1ccc(C2CCCCC2)c2sc(NC(=O)c3ccc(F)cc3)nc12 [Example 23, N-(7-Cyclohexyl-4-methoxy-benzothiazol-2-yl)-4-fluoro-benzamide]	0.2
CCCc1cc(C(=O)Nc2nc3c(OC)ccc(C4CCOCC4)c3s2)ccn1 [Example 34, N-[4-Methoxy-7-(tetrahydro-pyran-4-yl)-benzothiazol-2-yl]-2-propyl-isonicotinamide]	1.82
COc1ccc(C2CCN(C(C)=O)CC2)c2sc(NC(=O)c3ccnc(N4CCOCC4)c3)nc12 [Example 20, N-[7-(1-Acetyl-piperidin-4-yl)-4-methoxy-benzothiazol-2-yl]-2-morpholin-4-yl-isonicotinamide]	2.51
COC(=O)Nc1nc2c(OC)ccc(C3CCOCC3)c2s1 [Example 2, [4-Methoxy-7-(tetrahydro-pyran-4-yl)-benzothiazol-2-yl]-carbamic acid methyl ester]	11.5
COc1ccc(C2CCOCC2)c2sc(NC(=O)c3ccnc(Br)c3)nc12 [Example 4, 2-Bromo-N-[4-methoxy-7-(tetrahydro-pyran-4-yl)-benzothiazol-2-yl]-isonicotinamide]	1.74
COc1ccc(C2CCOCC2)c2sc(NC(=O)c3ccc(CCl)cc3)nc12 [Example 7, 4-Chloromethyl-N-[4-methoxy-7-(tetrahydro-pyran-4-yl)-benzothiazol-2-yl]-benzamide]	1.1
COc1ccc(C2CCOCC2)c2sc(NC(=O)c3ccnc(CN4CCCC4)c3)nc12 [Example 43, N-[4-Methoxy-7-(tetrahydro-pyran-4-yl)-benzothiazol-2-yl]-2-pyrrolidin-1-ylmethyl-isonicotinamide]	1.23
COc1ccc(C2CCOCC2)c2sc(NC(=O)N3CCC(O)CC3)nc12 [Example 45, 4-Hydroxy-piperidine-1-carboxylic acid [4-methoxy-7-(tetrahydro-pyran-4-yl)-benzothiazol-2-yl]-amide]	1.62
COc1ccc(C2CCCCO2)c2sc(NC(=O)c3ccnc(Br)c3)nc12 (stereo not shown) [Example 39, 2-Bromo-N-[4-methoxy-7-(tetrahydro-pyran-2-yl)-benzothiazol-2-yl]-isonicotinamide]	3.8

— patent US6734179B2, “Benzothiazoles” (Hoffmann-La Roche Inc., priority 2001, dated 2004)
